Measurements reported in patent US20240091226A1, “Forms and Formulations Of A Tyrosine Kinase Non-Receptor 1 (TNK1) Inhibitor” (Sumitomo Pharma Oncology, inc., priority 2021, published 2024).
Values after ≈ are worked out from the molar mass of the structure shown. “Also recorded” adds a separate entry of the source.

How the values were obtained:
Apc^Min+/− mice = assay: ApcMin mouse efficacy model; assay type: in vivo
Protocol: TNK1 upregulation is reported to play a role in the pathogenic process of intestinal barrier disruption in a transgenic mice model of increased TNK1 expression/activation (PMID: 30320600). Therefore, the efficacy of the compound of structural formula I was evaluated in germline mutant mouse model of intestinal neoplasia and cachexia, Apc^Min+/− model, which is also known to induce gut barrier dysfunction (PMID: 21914473). Apc^Min+/− mice are reported to start the development of tumors at approximately 4 weeks of age. Twenty female Apc^Min+/− mice (JAX Stock No: 002020) were enrolled in the study at the age of 10 weeks. Randomization was done based on the body weight, and animals were divided into four treatment groups (5 mice/group). […] Celecoxib is a COX-2 inhibitor, and was used as a positive control because it has been reported to prevent and regress adenomas in APC model (PMID: 11016626). Mice were sacrificed 2 hours after the last dose of total 10 weeks of dosing (71 days), at the age of 20 weeks. After dosing started, the animals were checked daily for morbidity and mortality.

[1] = Hygroscopicity by dynamic vapor sorption (DVS); assay type: physicochemical; details: for Hygroscopicity (%), water uptake: DVS, 25° C./80% RH; for Form Change after DVS: XRPD before and after DVS
Protocol: Hygroscopicity. DVS isotherm plot was collected at 25° C. to investigate the solid form stability as a function of humidity. All of Freebase Type E+F, L-Malate Type B, Succinate Type B and Mesylate Type A were equilibrated at ambient humidity (70% RH or 80% RH) to prevent form change before testing.
DVS. Dynamic Vapor Sorption (DVS) was measured via a SMS (Surface Measurement Systems) DVS Intrinsic. The relative humidity at 25° C. was calibrated against deliquescence point of LiCl, Mg(NO3)2 and KCl.

[2] = Two-week solid-state stability (XRPD, HPLC purity); assay type: physicochemical; details: two weeks; for Stress stability / solid-state physical and chemical stability (in words): 25° C./60% RH and 40° C./75% RH (open); for Purity (area %) after storage / Purity vs Initial (%): open
Protocol: Solid-state Stability. Solid-state stability of Freebase Type E+F (818718-01-A), L-Malate Type B (818718-21-A1) and Mesylate Type A (818718-21-A5) were evaluated under 25° C./60% RH and 40° C./75% RH (open) for two weeks. Stability samples were characterized by XRPD to check any solid form change, and by HPLC to check purity change.

[3] = Kinetic solubility in water, SGF and FaSSIF at 37° C.; assay type: physicochemical; details: for Kinetic solubility in water (in words): Freebase Type E+F as control
Protocol: Kinetic Solubility. Kinetic solubility of salt leads was measured in water, SGF and FaSSIF to evaluate their solubility and disproportionation risk, using Freebase Type E+F (818718-01-A) as control. […] After centrifugation, supernatants were collected for HPLC and pH tests, and wet cakes were collected for XRPD characterization.

Structure (SMILES)	Hygroscopicity (%), water uptake [1] [%]	Form Change after DVS [1]	Purity (area %) after storage ([2]; 25° C./60% RH) [area %]	Purity vs Initial (%) ([2]; 25° C./60% RH)	Purity (area %) after storage ([2]; 40° C./75% RH) [area %]	Purity vs Initial (%) ([2]; 40° C./75% RH)	S: solubility ([3]; FaSSIF, 1 hr) [µg/mL]	pH: final pH ([3]; FaSSIF, 1 hr)	S: solubility ([3]; FaSSIF, 4 hrs) [µg/mL]	pH: final pH ([3]; FaSSIF, 4 hrs)	S: solubility ([3]; FaSSIF, 24 hrs) [µg/mL]	pH: final pH ([3]; FaSSIF, 24 hrs)	S: solubility ([3]; H2O, 1 hr) [µg/mL]	pH: final pH ([3]; H2O, 1 hr)	S: solubility ([3]; H2O, 4 hrs) [µg/mL]	pH: final pH ([3]; H2O, 4 hrs)	S: solubility ([3]; H2O, 24 hrs) [µg/mL]	pH: final pH ([3]; H2O, 24 hrs)	Stress stability / solid-state physical and chemical stability (in words) [2]	Kinetic solubility in SGF (in words) ([3]; SGF)	also measured
Cc1ccc(-c2cc(C(F)(F)F)nn2-c2ccc(S(N)(=O)=O)cc2)cc1 [celecoxib, reference compound]																					reduction of spleen size compared to vehicle (Apc^Min+/− mice; 120 mg/kg): approximately 26%; decrease in number of polyps in the intestine compared to vehicle (Apc^Min+/− mice; 120 mg/kg once daily oral gavage, 10 weeks, female Apc^Min+/− mice): approximately 90%
COc1cc(N2CCN(C)CC2)c(Cl)cc1Nc1ncc(Cl)c(Nc2cccnc2N2CCCC2=O)n1 [Mesylate Type A]	2.74	No form change and No	99.31	100.1	99.43	100.2	370	6.4	360	6.3	340	6.2	7500	6.1	7500	6.2	7400	6.0	good physical and chemical stability; also recorded: good physicochemical stability; also recorded: good physiochemical stability	showed relatively high solubility in SGF at 37 °C L-Malate	FC: form change ([3]; FaSSIF, 1 hr): new form with low crystallinity and Yes; FC: form change ([3]; FaSSIF, 4 hrs): Yes; FC: form change ([3]; FaSSIF, 24 hrs): Yes; S: solubility ([3]; SGF, 1 hr): 8200 µg/mL; pH: final pH ([3]; SGF, 1 hr): 2.5; S: solubility ([3]; SGF, 4 hrs): 8000 µg/mL; pH: final pH ([3]; SGF, 4 hrs): 2.6; S: solubility ([3]; SGF, 24 hrs): 7400 µg/mL; pH: final pH ([3]; SGF, 24 hrs): 2.5; Kinetic solubility in water (in words) [3]: increased solubility

Second part, led by results:

Hygroscopicity (%), water uptake [1] [%]	Form Change after DVS [1]	Purity (area %) after storage ([2]; 25° C./60% RH) [area %]	Purity vs Initial (%) ([2]; 25° C./60% RH)	Purity (area %) after storage ([2]; 40° C./75% RH) [area %]	Purity vs Initial (%) ([2]; 40° C./75% RH)	S: solubility ([3]; FaSSIF, 1 hr) [µg/mL]	pH: final pH ([3]; FaSSIF, 1 hr)	S: solubility ([3]; FaSSIF, 4 hrs) [µg/mL]	pH: final pH ([3]; FaSSIF, 4 hrs)	S: solubility ([3]; FaSSIF, 24 hrs) [µg/mL]	pH: final pH ([3]; FaSSIF, 24 hrs)	S: solubility ([3]; H2O, 1 hr) [µg/mL]	pH: final pH ([3]; H2O, 1 hr)	S: solubility ([3]; H2O, 4 hrs) [µg/mL]	pH: final pH ([3]; H2O, 4 hrs)	S: solubility ([3]; H2O, 24 hrs) [µg/mL]	pH: final pH ([3]; H2O, 24 hrs)	Structure (SMILES)	Stress stability / solid-state physical and chemical stability (in words) [2]	Kinetic solubility in SGF (in words) ([3]; SGF)	also measured
3.00	No form change and No	98.97	100.0	98.96	100.0	7200	5.0	6900	4.9	7400	4.9	7100	4.0	7200	4.0	6700	4.1	COc1cc(N2CCN(C)CC2)c(Cl)cc1Nc1ncc(Cl)c(Nc2cccnc2N2CCCC2=O)n1 [L-Malate Type B]	good physical and chemical stability; also recorded: good physicochemical stability	showed relatively high solubility in SGF at 37 °C L-Malate	Kinetic solubility in FaSSIF (in words) ([3]; FaSSIF, compared with Mesylate Type A and Freebase Type E+F): Type B showed much higher solubility than Mesylate Type A; S: solubility ([3]; SGF, 1 hr): 7600 µg/mL; pH: final pH ([3]; SGF, 1 hr): 3.2; S: solubility ([3]; SGF, 4 hrs): 7700 µg/mL; pH: final pH ([3]; SGF, 4 hrs): 3.1; S: solubility ([3]; SGF, 24 hrs): 6900 µg/mL; pH: final pH ([3]; SGF, 24 hrs): 3.2; Kinetic solubility in water (in words) [3]: increased solubility
1.55	No form change	98.64	100.0	98.75	100.1	170	6.6	180	5.6	110	6.5	1.2	8.8	1.2	8.6	2.4	8.4	COc1cc(N2CCN(C)CC2)c(Cl)cc1Nc1ncc(Cl)c(Nc2cccnc2N2CCCC2=O)n1 [Freebase Type E+F]	good physical and chemical stability; also recorded: good physicochemical stability	relatively high solubility	Hygroscopicity (%), water uptake ([1]; listed as Freebase Type E + F): hygroscopic (1.55) %; Form Change after DVS ([1]; listed as Freebase Type E + F): No; Hygroscopicity (class) ([1]; based on water uptake at 25° C./80% RH): slightly hygroscopic (slightly hygroscopic - 0.2~2%); FC: form change ([3]; FaSSIF, 1 hr): Yes; FC: form change ([3]; FaSSIF, 4 hrs): Yes; FC: form change ([3]; FaSSIF, 24 hrs): Yes; FC: form change ([3]; H2O, 1 hr): Yes; FC: form change ([3]; H2O, 4 hrs): Yes; FC: form change ([3]; H2O, 24 hrs): Yes; solubility at 1 h ([3]; SGF, 37 °C, simulated gastric fluid, thermodynamic from solid, SGF, 1 hr, read-out: S: solubility): 7100 µg/mL (≈ 13.1 mM); solubility at 4 h ([3]; SGF, 37 °C, simulated gastric fluid, thermodynamic from solid, SGF, 4 hrs, read-out: S: solubility): 7200 µg/mL (≈ 13.2 mM); solubility at 24 h ([3]; SGF, 37 °C, simulated gastric fluid, thermodynamic from solid, SGF, 24 hrs, read-out: S: solubility): 7200 µg/mL (≈ 13.2 mM); FC: form change ([3]; SGF, 1 hr): Yes; pH: final pH ([3]; SGF, 1 hr): 5.4; FC: form change ([3]; SGF, 4 hrs): Yes; pH: final pH ([3]; SGF, 4 hrs): 5.4; FC: form change ([3]; SGF, 24 hrs): Yes; pH: final pH ([3]; SGF, 24 hrs): 6.2; Kinetic solubility in SGF (in words) ([3]; SGF, listed as Freebase Type E + F): showed relatively high solubility in SGF at 37 °C L-Malate; form after kinetic solubility test ([3]; all the three media (water, SGF, FaSSIF)): turned to Freebase Type E
8.22	No form change																	COc1cc(N2CCN(C)CC2)c(Cl)cc1Nc1ncc(Cl)c(Nc2cccnc2N2CCCC2=O)n1 [Succinate Type B]			
